Three molecules from article PMC11126973, “Targeting the Plasmodium falciparum UCHL3 ubiquitin hydrolase using chemically constrained peptides” (Proceedings of the National Academy of Sciences of the …, 2024) can be followed below.

The target in experiment [1] is T1, PfUCHL3 (Plasmodium falciparum, UniProt Q8IKM8).
T1 sequence (Q8IKM8 1-232): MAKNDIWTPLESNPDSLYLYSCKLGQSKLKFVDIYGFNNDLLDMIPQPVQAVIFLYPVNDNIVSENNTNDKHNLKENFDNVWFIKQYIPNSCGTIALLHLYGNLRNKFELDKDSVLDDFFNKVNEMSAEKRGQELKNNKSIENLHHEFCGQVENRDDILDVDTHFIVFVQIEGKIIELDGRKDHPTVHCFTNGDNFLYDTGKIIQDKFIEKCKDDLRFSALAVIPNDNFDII
In words: biochemical. Format: binding. Also on record: His tag (TEV-cleavable) (cleaved yes); made in house. The following applies: for Kd: BLI, 25 °C. The procedure:
BLI experiments were performed using a ForteBio Octet Red96 instrument at 25 °C. Measurements were performed in black 96-well plates with a well volume of 200 μL. Biotinylated Avi-tagged PfUCHL3 was prepared in a buffer containing 50 mM Tris-HCl buffer, 200 mM NaCl, 0.5 mM TCEP, pH 7.5, and loaded at 1 μg/mL for 60 s. Peptides were diluted to a 4 μM stock concentration in the same DMSO:water mix in which they were resuspended from their stock powder (approximately 4%). The final dilutions (to 400 nM, 133.3 nM, and 44.4 nM) were performed in the same buffer as for the PfUCHL3. Streptavidin-coated tips were used with a new tip for each measurement, because regeneration with PfUCHL3 attached to the tip was not possible. The association and dissociation times were 300 s. All data analysis was performed with the instrument software.

In experiment [2] the target is T1, PfUCHL3. Kind of experiment: Thermal shift assay (TSA) of PfUCHL3 with peptides. The following applies: peptide 48 pM to 25 μM, PfUCHL3 5 μM. The experiment is classed as binding. On the set-up: His tag (TEV-cleavable) (cleaved yes); made in house; host or cells: bacterial cells (purified 'as described above', C41). The procedure:
Thermal shift assays were performed using a Bio-Rad CFX Connect qPCR instrument, whereby the unfolding is detected by fluorescence of the hydrophobic dye Sypro Orange that binds to the unfolded state of the protein. The experiments were performed in clear-bottom, half-volume, 96-well plates using final well volumes of 25 μL, PfUCHL3 concentration of 5 μM, peptide concentrations ranging from 47 pM to 25 μM, and Sypro Orange:protein concentration ratio of 1:400. PfUCHL3, Sypro orange, and peptide were diluted to 5x concentration in buffer, 1:2,000 concentration in buffer, and 4% DMSO, respectively, before being mixed in the well to a final 1x concentration in buffer. For the PfUCHL3-only control, the peptide was replaced with 4% DMSO and for the buffer control, the PfUCHL3 was replaced with buffer in the sample mix. The samples were incubated at 20 °C for 2 min before increasing by 0.5 °C every 30 s up to 90 °C. At each temperature, the fluorescence intensity was measured using an excitation wavelength of 471 nm and an emission wavelength of 570 nm. Data analysis was performed using the GraphPad Prism software.

The test system of experiment [3] is T2, HsUCHL3.
T2 construct: His tag (TEV-cleavable) (cleaved yes); made in house; host or cells: bacterial cells (purified 'as described above')
Kind of experiment: Ub-AMC deubiquitination (DUB) assay, HsUCHL3. The experiment is classed as biochemical, human. The following applies: peptide 25 μM, HsUCHL3 31.25 pM. The protocol: (§1) DUB assays were performed in triplicate in 384-well plates (Corning) using a CLARIOstar plus plate reader. PfUCHL3, HsUCHL3, or peptide were diluted in reaction buffer (50 mM Tris-HCl buffer, pH 7.5, 150 mM NaCl, 1 mg/mL BSA, 0.1% DMSO, and 1 mM TCEP) to 4× the desired final peptide/protein concentration (to keep DMSO concentration constant in all reactions). Protein and peptide (or 0.1% DMSO (mock)) were mixed 1:1 and incubated for 10 min at room temperature, with each enzyme complex at 2× the desired final concentration. Enzyme:peptide mixture (10 μL) and Ub-AMC (7-amino-4-methylcoumarin, Boston Biochem) (250 nM, 10 μL) were mixed in a 384-well plate. DUB activity was measured by monitoring the increase in AMC fluorescence. The kinetic trace at each concentration of peptide was corrected for background and then the initial rate of reaction was determined. The rate of reaction was plotted against the concentration of peptide to determine the IC50 using the following equation: Y=Vmax^*X/IC50+X,
(§2) where Vmax is the reaction rate in the absence of inhibitor, X is the concentration of the peptide inhibitor, and IC50 is the peptide concentration when the rate was inhibited by the peptide by 50%. The data were fitted using Prism (Graphpad).

Experiment [4] deals with T1, PfUCHL3. Kind of experiment: biochemical. On the set-up: His tag (TEV-cleavable) (cleaved yes); made in house. The protocol: as §1, §2

Each structure is given as a SMILES string. Where “and” joins values, the source holds several entries; their conditions need not be identical. Equal values may be shown once. Bridge positions count the residues as written; N and C are the ends. Square brackets hold non-standard residues; d marks the D form. Peptide text beside a SMILES is read from it.

In experiment [1], `CC[C@H](C)[C@@H]1NC(=O)[C@H](Cc2ccc(O)cc2)NC(=O)[C@H](CCCNC(=N)N)NC(=O)[C@H](CCC(N)=O)NC(=O)[C@H](Cc2ccc(O)cc2)NC(=O)[C@H](CC(=O)O)NC(=O)[C@@H](Cc2c[nH]c3ccccc23)NC(=O)CSC[C@@H](C(=O)O)NC(=O)[C@H](Cc2c[nH]c3ccccc23)NC(=O)[C@H](CS)NC(=O)[C@H]([C@@H](C)O)NC(=O)[C@H]([C@@H](C)O)NC(=O)[C@H](CC(C)C)NC(=O)[C@H](CCCNC(=N)N)NC(=O)[C@H](Cc2ccccc2)NC(=O)[C@H](CCCCN)NC1=O` [Peptide 58474] ({CH2CO}-[dW]DYQRYIKFRLTTCWC-OH; thioether N-16) returned a koff of 0.00174 ± 9e-05 s⁻¹ and a kon of 17100 ± 900 M⁻¹ s⁻¹. Moreover, the Kd in experiment [1] (1:1 (1-site) model) came to 0.101 ± 0.007 µM.
In experiment [1], `CC[C@H](C)[C@@H]1NC(=O)[C@H](Cc2c[nH]c3ccccc23)NC(=O)[C@H](CC(C)C)NC(=O)[C@H](CCCNC(=N)N)NC(=O)[C@@H](Cc2c[nH]c3ccccc23)NC(=O)CSC[C@@H](C(=O)O)NC(=O)[C@H](CC(=O)O)NC(=O)[C@H](Cc2ccc(O)cc2)NC(=O)[C@H](CCCNC(=N)N)NC(=O)[C@H](CC(N)=O)NC(=O)[C@H](Cc2ccc(O)cc2)NC(=O)[C@H](CCCNC(=N)N)NC(=O)[C@H](CCCNC(=N)N)NC(=O)[C@H](CCC(=O)O)NC(=O)[C@H](CO)NC(=O)[C@H](CC(C)C)NC1=O` [Peptide 60296] ({CH2CO}-[dW]RLWILSERRYNRYDC-OH; thioether N-16) returned a koff of 0.0053 ± 6e-05 s⁻¹ and a kon of 569000 ± 16000 M⁻¹ s⁻¹. In addition, the “dose dependence of PfUCHL3 melting temperature” value in experiment [2] is listed as “increase in a dose-dependent manner”. The “inhibitory effect on the human UCHL3 enzyme” value in experiment [3] is “Neither 60296 nor 60297 peptides showed any inhibitory effect”.
Molecule `CC(C)[C@@H]1NC(=O)[C@H](Cc2ccc(O)cc2)NC(=O)[C@H](Cc2c[nH]cn2)NC(=O)[C@H](Cc2c[nH]c3ccccc23)NC(=O)[C@@H]2CCCN2C(=O)[C@H](Cc2c[nH]c3ccccc23)NC(=O)[C@H](Cc2ccccc2)NC(=O)[C@H]([C@@H](C)O)NC(=O)[C@H]([C@@H](C)O)NC(=O)[C@@H](Cc2c[nH]c3ccccc23)NC(=O)CSC[C@@H](C(=O)O)NC(=O)[C@H](CCC(N)=O)NC1=O` [Peptide 60297] ({CH2CO}-[dW]TTFWPWHYVQC-OH; thioether N-12) displayed an IC50 in experiment [4] of 1.44 ± 0.371 µM. In experiment [1] (complex profile fitted to heterogeneous model, the tighter of the two Kd values), the Kd was 0.002 µM and ~0.002 µM.
